Results from patent publication US20240241108A1, “LUNG ORGANOID MODEL AND METHOD OF USE” (The Regents of the University of California, priority 2021, published 2024).

Experiments:
SARS-COV-2 [1] = conditions: cited from earlier work
SARS-COV-2 [2] = conditions: cited from earlier work; remark: listed apart in the source
SARS-COV-2 [3] = assay: Pre-clinical drug screen in SARS-COV-2-infected lung organoid monolayers (384-well), viral E gene qPCR readout; format: cell-based; conditions: FIG. 3G; for viral titer (abundance of E gene in the monolayers): pre-treated for 4 hours prior to infection, assessed at 48 hours post-infection, DMSO control
Experimental: Using the E gene as a readout, it was determined whether lung organoid models could be used as platforms for pre-clinical drug screens. The efficacy of nucleoside analog N^4-hydroxycytidine (NHC: EIDD-parent) and its derivative pro-drug. EIDD-2801, were tested. […] Lung organoid monolayers plated in 384-wells were pre-treated for 4 hours with the compounds or DMSO, as a control, prior to infection. The monolayers were assessed at 48 hours post-infection for the abundance of E gene in the monolayers.
Densely packed organoids, collected in PBS/0.5 mM EDTA were centrifuged at 200 rcf for 5 minutes. Organoids were dissociated in 2 mL trypLE Select (Gibco, USA) per 12 wells of organoids at 37 °C for 4-5 minutes and mechanically sheared by pipetting up and down. The TrypLE was inactivated with al-to-5 trypLE to Lung Wash Media ratio. The cells were thereafter centrifuged at 300 g for 4 minutes. The supernatant was aspirated and resuspended in the cell pellet at room temperature using PneumaCult Ex-Plus Mix, with larger clumps of cells being filtered out using […] filter. The viable cells were counted and plated using PneumaCult Ex-Plus media. Cells were either plated 10^5 cells per well in a 96 well plate, or 2×10^4 cells per well in a 384 well Matrigel coated plate. The media was changed after 24 hours of incubation. After 48 hours of plating, the cells were differentiated and appeared flattened. The cells were then infected with MOI of 0.5 with SARS-COV-2. After treatment, the lung monolayers were used for RNA sequencing, immunostaining, and other functional assay.
Lung organoid-derived monolayers or primary airway epithelial cells, either in 384 well plates or in transwells, were washed twice with antibiotic-free lung wash media. […]
Assessment of SARS-COV-2 infectivity test was determined by qPCR using TaqMan assays and TaqMan Universal PCR Master Mix96.97. cDNA was amplified with gene-specific primer/probe set for the E gene and qPCR was performed with the Applied Biosystems QuantStudio 3 Real-Time PCR System. […]

## CC(C)C(=O)OC[C@H]1O[C@@H](n2ccc(NO)nc2=O)[C@H](O)[C@@H]1O [EIDD-2801]
SARS-COV-2 [1]
  inhibition of viral replication in SARS-COV-2-challenged ferrets: inhibit viral replication
SARS-COV-2 [2]
  inhibition of viral replication in vitro: inhibit viral replication
SARS-COV-2 [3]; pre-treated 4 hours, 48 hours post-infection
  efficacy compared with the parent compound (reduction of viral titer): showed a better efficacy
SARS-COV-2 [3]
  viral titer (abundance of E gene in the monolayers): effectively reduced the viral titer in a dose-dependent manner

## O=c1nc(NO)ccn1[C@@H]1O[C@H](CO)[C@@H](O)[C@H]1O [NHC, N^4-hydroxycytidine]
SARS-COV-2 [1]
  inhibition of viral replication in SARS-COV-2-challenged ferrets: inhibit viral replication
SARS-COV-2 [2]
  inhibition of viral replication in vitro: inhibit viral replication
SARS-COV-2 [3]
  viral titer (abundance of E gene in the monolayers): effectively reduced the viral titer in a dose-dependent manner
